In ChEMBL document CHEMBL5042471, “Development and Application of Subtype-Selective Fluorescent Antagonists for the Study of the Human Adenosine A1 Receptor in Living Cells” (J Med Chem, 2021):
Blank lines part the entries; values can stand above or below the compound they belong to. Active and inactive are the calls of the source. The rule behind the calls is not given here.

What was measured:
Adenosine receptor A1 [1] = biological target: T1, Adenosine receptor A1 (Homo sapiens, UniProt P30542); assay: Displacement of [3H]DPCPX from human A1 adenosine receptor expressed in Flp-In-CHO cells by radioligand competitive binding assay; format: cell-based
T1 sequence (P30542 whole entry): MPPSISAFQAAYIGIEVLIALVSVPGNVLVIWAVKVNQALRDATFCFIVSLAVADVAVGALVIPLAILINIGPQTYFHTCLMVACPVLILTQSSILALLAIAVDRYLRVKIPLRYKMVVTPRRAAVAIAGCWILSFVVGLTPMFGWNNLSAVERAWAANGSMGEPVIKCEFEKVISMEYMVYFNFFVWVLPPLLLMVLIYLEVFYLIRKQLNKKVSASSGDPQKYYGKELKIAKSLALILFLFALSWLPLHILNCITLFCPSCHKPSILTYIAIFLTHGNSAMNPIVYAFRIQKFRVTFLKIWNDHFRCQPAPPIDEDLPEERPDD

[2] = biological target: T2, Adenosine receptor A1 (Homo sapiens) (UniProt P30542); assay: Binding affinity to NanoLuc-human A1 adenosine receptor expressed in HEK293-A cells assessed as binding constant (kon) by NanoBRET competitive binding assay; format: cell-based; conditions: filed as antagonist
T2 sequence (whole entry): T1 sequence (P30542 whole entry)

Adenosine receptor A2a [3] = biological target: T3, Adenosine receptor A2a (Homo sapiens, UniProt P29274); assay: Binding affinity to NLuc human A2A adenosine receptor expressed in HEK293-A cells in presence of 1 uM ZM241385 by NanoBRET binding assay; format: cell-based
[4] = biological target: T2, Adenosine receptor A1 (Homo sapiens); assay: Binding affinity to NanoLuc-human A1 adenosine receptor expressed in HEK293-A cells assessed as binding constant (koff) by NanoBRET competitive binding assay; format: cell-based; conditions: filed as antagonist
[5] = biological target: T2, Adenosine receptor A1 (Homo sapiens); assay: Antagonist activity at human A1 adenosine receptor expressed in Flp-In-CHO cells assessed as reduction in NECA-mediated inhibition of forskolin stimulated cAMP accumulation by cAMP assay; format: functional, cell-based; conditions: filed as antagonist
[6] = biological target: T4, Adenosine receptor A3 (Homo sapiens) (UniProt P0DMS8); assay: Binding affinity to NLuc human A3 adenosine receptor expressed in HEK293-A cells assessed as maximal binding capacity in presence of 1 uM MRS1220 by NanoBRET binding assay; format: cell-based; conditions: filed as antagonist
T4 sequence (whole entry): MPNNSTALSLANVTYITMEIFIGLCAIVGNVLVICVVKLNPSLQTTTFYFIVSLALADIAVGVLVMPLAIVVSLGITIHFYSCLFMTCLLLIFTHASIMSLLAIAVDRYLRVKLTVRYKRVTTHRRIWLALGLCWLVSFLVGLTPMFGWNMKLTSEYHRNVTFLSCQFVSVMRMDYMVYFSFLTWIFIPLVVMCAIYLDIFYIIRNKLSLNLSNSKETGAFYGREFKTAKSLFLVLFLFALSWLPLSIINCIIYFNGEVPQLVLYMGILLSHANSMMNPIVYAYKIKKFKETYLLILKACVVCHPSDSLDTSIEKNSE

Adenosine receptor A1 [7] = biological target: T1, Adenosine receptor A1; assay: Binding affinity to NanoLuc-human A1 adenosine receptor expressed in HEK293-A cells assessed as kinetic dissociation constant by NanoBRET competitive binding assay; format: cell-based
Adenosine receptor A2b = biological target: T5, Adenosine receptor A2b (Homo sapiens, UniProt P29275); assay: Binding affinity to NLuc human A2B adenosine receptor expressed in HEK293-A cells in presence of 1 uM PSB603 by NanoBRET binding assay; format: cell-based
T5 sequence (P29275 whole entry): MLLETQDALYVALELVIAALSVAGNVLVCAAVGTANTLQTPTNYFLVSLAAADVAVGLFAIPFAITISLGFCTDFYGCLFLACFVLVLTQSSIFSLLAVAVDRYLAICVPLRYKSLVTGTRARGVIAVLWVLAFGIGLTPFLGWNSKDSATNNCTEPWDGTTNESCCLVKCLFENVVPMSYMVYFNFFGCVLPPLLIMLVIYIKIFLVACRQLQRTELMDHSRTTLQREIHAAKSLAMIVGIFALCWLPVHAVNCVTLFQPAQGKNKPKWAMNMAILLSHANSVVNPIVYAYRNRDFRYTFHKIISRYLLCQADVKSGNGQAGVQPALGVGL

[8] = biological target: T6, Adenosine receptor A2b (Homo sapiens) (UniProt P29275); assay: Binding affinity to NLuc human A2B adenosine receptor expressed in HEK293-A cells assessed as maximal binding capacity in presence of 1 uM PSB603 by NanoBRET binding assay; format: cell-based; conditions: filed as antagonist
T6 sequence (whole entry): T5 sequence (P29275 whole entry)

Adenosine receptor A1 [9] = biological target: T1, Adenosine receptor A1; assay: Binding affinity to NLuc human A1 adenosine receptor expressed in HEK293-A cells in presence of 1 uM SLV320 by NanoBRET binding assay; format: cell-based
[10] = biological target: T2, Adenosine receptor A1 (Homo sapiens); assay: Binding affinity to SNAP-tagged-human A1 adenosine receptor expressed in HEK293 cells at 5 nM after 30 mins in presence of SLV320 by confocal microscopy method; format: cell-based
Adenosine receptor A3 = biological target: T7, Adenosine receptor A3 (Homo sapiens, UniProt P0DMS8); assay: Binding affinity to NLuc human A3 adenosine receptor expressed in HEK293-A cells in presence of 1 uM MRS1220 by NanoBRET binding assay; format: cell-based
T7 sequence (P0DMS8 whole entry): T4 sequence (whole entry)

Adenosine receptor A2a [11] = biological target: T3, Adenosine receptor A2a; assay: Binding affinity to NLuc human A2A adenosine receptor expressed in HEK293-A cells assessed as maximal binding capacity in presence of 1 uM ZM241385 by NanoBRET binding assay; format: cell-based; conditions: filed as antagonist
[12] = biological target: T2, Adenosine receptor A1 (Homo sapiens); assay: Binding affinity to NLuc human A1 adenosine receptor expressed in HEK293-A cells assessed as maximal binding capacity in presence of 1 uM SLV320 by NanoBRET binding assay; format: cell-based; conditions: filed as antagonist
Adenosine receptor A1 [13] = biological target: T1, Adenosine receptor A1; assay: biochemical
Description: Displacement of [3H]DPCPX from human A1 adenosine receptor expressed in CHO-K1 cells by radioligand binding assay

T3 sequence (P29274 whole entry): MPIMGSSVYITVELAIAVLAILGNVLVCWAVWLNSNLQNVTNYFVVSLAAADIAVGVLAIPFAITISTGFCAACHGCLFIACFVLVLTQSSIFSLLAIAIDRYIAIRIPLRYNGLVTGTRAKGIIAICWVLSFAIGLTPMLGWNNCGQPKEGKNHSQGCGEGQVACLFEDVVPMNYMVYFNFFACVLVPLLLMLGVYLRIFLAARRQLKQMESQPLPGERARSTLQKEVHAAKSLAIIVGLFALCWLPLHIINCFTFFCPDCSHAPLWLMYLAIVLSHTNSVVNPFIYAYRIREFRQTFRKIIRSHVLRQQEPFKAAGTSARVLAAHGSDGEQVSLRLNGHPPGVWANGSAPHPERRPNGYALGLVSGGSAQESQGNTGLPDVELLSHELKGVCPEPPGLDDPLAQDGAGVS

Structure (SMILES): CCCn1c(=O)c2[nH]c(C34CCC(C(=O)NCCNC(=O)COCCOCCNC(=O)OC(C)(C)C)(CC3)CC4)nc2n(CCC)c1=O
- Ki (Adenosine receptor A1 [1]): 17.4 nM

Structure (SMILES): CCCn1c(=O)c2[nH]c(C34CCC(C(=O)NCCNC(=O)COCCNC(=O)OC(C)(C)C)(CC3)CC4)nc2n(CCC)c1=O
- Ki (Adenosine receptor A1 [1]): 13.8 nM

Structure (SMILES): CCCn1c(=O)c2[nH]c(C34CCC(C(=O)NCCCNC(=O)COCCNC(=O)OC(C)(C)C)(CC3)CC4)nc2n(CCC)c1=O
- Ki (Adenosine receptor A1 [1]): 16.2 nM

Structure (SMILES): CCCn1c(=O)c2[nH]c(C34CCC(C(=O)NCCNC(=O)CCNC(=O)CCNC(=O)OC(C)(C)C)(CC3)CC4)nc2n(CCC)c1=O
- Ki (Adenosine receptor A1 [1]): 4.37 nM

Structure (SMILES): O[C@H]1CC[C@H](Nc2nc(-c3ccccc3)nc3[nH]ccc23)CC1
- Ki (Adenosine receptor A1 [13]): 1 nM
- Ki (Adenosine receptor A1 [1]): 1.7 nM

Structure (SMILES): CCCn1c(=O)c2[nH]c(C34CCC(CCC(=O)NCCNC(=O)CCNC(=O)CCNC(=O)OC(C)(C)C)(CC3)CC4)nc2n(CCC)c1=O
- Ki (Adenosine receptor A1 [1]): 7.76 nM

Further compounds by falling Ki (Adenosine receptor A1 [1]), results first:

- Ki (Adenosine receptor A1 [1]): 851 nM
Structure (SMILES): CCCn1c(=O)c2[nH]c(C34CCC(C(=O)NCCNC(=O)CCCCC[N+]5=C(/C=C/C=C/C=C6/N(C)c7ccc(S(=O)(=O)O)cc7C6(C)C)C(C)(C)c6cc(S(=O)(=O)[O-])ccc65)(CC3)CC4)nc2n(CCC)c1=O

- Ki (Adenosine receptor A1 [1]): 14.8 nM
Structure (SMILES): CCCn1c(=O)c2[nH]c(C34CCC(CCC(=O)NCCNC(=O)COCCNC(=O)OC(C)(C)C)(CC3)CC4)nc2n(CCC)c1=O

- Ki (Adenosine receptor A1 [1]): 13.2 nM
Structure (SMILES): CCCn1c(=O)c2[nH]c(C34CCC(CCC(=O)NCCNC(=O)COCCOCCNC(=O)OC(C)(C)C)(CC3)CC4)nc2n(CCC)c1=O

- Ki (Adenosine receptor A1 [1]): 12.9 nM
Structure (SMILES): CCCn1c(=O)c2[nH]c(C34CCC(C(=O)NCCCNC(=O)CCNC(=O)CCNC(=O)OC(C)(C)C)(CC3)CC4)nc2n(CCC)c1=O

- K [2]: 17.9 10^6/M/min
- Kd (Adenosine receptor A2a [3]): 28.2 nM
- K [4]: 0.054 min⁻¹
- pKb [5]: 9.75
- Bmax [6]: 0.012
- Kd (Adenosine receptor A1 [7]): 3.09 nM
- Kd (Adenosine receptor A2b): 7.76 nM
- Bmax [8]: 0.016
- Kd (Adenosine receptor A1 [9]): 1.17 nM
- Activity [10]: inactive
- Ki (Adenosine receptor A1 [1]): 0.288 nM
- Kd (Adenosine receptor A3): 135 nM
- Bmax (Adenosine receptor A2a [11]): 0.035
- Bmax [12]: 0.018
Structure (SMILES): CCCn1c(=O)c2[nH]c(C34CCC(C(=O)NCCNC(=O)CCNC(=O)CCNC(=O)CCCCCNC(=O)COc5ccc(/C=C/C6=[N+]7C(=Cc8ccc(-c9cccs9)n8[B-]7(F)F)C=C6)cc5)(CC3)CC4)nc2n(CCC)c1=O
